According to patent US20220265655A1, “METHODS OF TREATING INFLAMMATORY DISEASES” (Ribon Therapeutics, Inc., priority 2021, published 2022):
Blank lines part the entries; values can stand above or below the compound they belong to.

Legend:
[1] = tested on: Alternaria sensitized mice challenged with Alternaria; settings: Compound 2 500 mg/kg b.i.d., Compound 1 500 mg/kg with 1-ABT 25 mg/kg b.i.d.
[2] = tested on: DNCB-induced atopic dermatitis model; test: DNCB-induced atopic dermatitis model (Example D)
[3] = tested on: IMQ-induced psoriasis model; test: Imiquimod (IMQ)-induced psoriasis model (Example E)
[4] = tested on: OXZ-induced colitis mouse model; settings: Compound 1 1,000 mg/kg PO BID; tofacitinib 10 mg/kg PO BID
[5] = tested on: BLM-induced pulmonary fibrosis model
Procedure: BLM-induced pulmonary fibrosis is an established disease model for IPF. In the model, alveolar injury and interstitial inflammation/fibrosis are induced by intracheal BLM administration.
Formulations (50 μL/vial) were kept for dose verification on the first and last dosing day (2 vials each, total 4 vials).
At Day 0, 40 mice were induced to develop pulmonary fibrosis by a single intratracheal administration of bleomycin hydrochloride (BLM, Nippon Kayaku, Japan) in PBS at a dose of 3.0 mg/kg, in a volume of 50 μL per animal using Microsprayer® (Penn-Century, USA) under a mixture of medetomidine (0.75 mg/kg), midazolam (4 mg/kg) and butorphanol (5 mg/kg) anesthesia by intraperitoneal administration in a volume of 10 mL/kg. […] Five mice were intratracheally administered PBS, instead of the BLM, which served as the Sham group.
Tofacitinib was administered orally at a dose of 50 mg/kg in a volume of 10 mL/kg twice daily (total of 100 mg/kg/day).
The viability, clinical signs and behavior were monitored daily. Body weight was recorded daily from Day 0. Dosing volume was adjusted based on the latest body weight. […] The animals were sacrificed on Day 14 by exsanguination through the abdominal vena cava under a mixture of medetomidine, midazolam and butorphanol anesthesia. The time of the dosing and termination was recorded. The left and post-caval lobe weight for all mice were recorded.
For Group 2-4, BALF samples were collected by flushing the lung via the trachea with sterile PBS three times (1st BALF, 2nd BALF and 3rd BALF, 0.8 mL each) at sacrifice under a mixture of medetomidine, midazolam and butorphanol anesthesia. The 1st BALF was centrifuged at 3,000×g for 5 min at 4° C. and the supernatant was collected and stored at −80° C. The cell pellet from the first fraction (1st BALF) was resuspended and added to the remaining fractions of lavage fluid (2nd and 3rd BALF). The total BALF was centrifuged at 1,000×g for 5 min at 4° C. and the supernatant was removed. Ammonium-Chloride-Potassium (ACK) lysing buffer was added to the pellet and washed for lysis of erythrocytes. After addition of cold PBS, the fluid was centrifuged at 1,000×g for 3 min at 4° C. and the supernatant was removed. Resuspended in PBS and total cell number of BALF was counted using a hemocytometer (C-Chip disposable hemocytometer, Digital Bio). After counting the total cells, the cell suspension was re-suspended in PBS to 5×10^5 cells/mL. A smear sample was then prepared by spotting 100 μL of cell suspension onto slides, and air-dried using a dryer on cool setting.
Indwelling needle was inserted into trachea and connected to instillation route of syringe. The syringe was loaded with 10% neutral buffered formalin and kept at the height of 20 cm. […] The three unfixed lobes were washed with cold saline and measured wet weight.
To quantify lung hydroxyproline content, frozen left lung samples were processed by an acid hydrolysis method as follows. […] AC buffer (2.2M acetic acid/0.48M citric acid, 200 μL) was added to the samples, followed by centrifugation to collect the supernatant. […] The samples were then mixed with Ehrlich's solution (300 μL) and heated at 65° C. for 20 minutes to develop the color. After samples were cooled on ice and centrifuged to remove precipitates, the optical density of each supernatant was measured at 560 nm. The concentrations of hydroxyproline were calculated from the hydroxyproline standard curve. Lung hydroxyproline levels were expressed as […] per left lung.
For Group 2-4, BALF IL-4, IL-6, IL-10 and IL-17 levels were quantified by Quantikine enzyme linked immunosorbent assay kits (code. M4000B for IL-4, code. M6000B for IL-6, code. M1000B for IL-10, code. M1700 for IL-17, R&D systems) according to manufacturer instructions.
For Masson's Trichrome staining, the sections were deparaffinized and rehydrated, followed by re-fixation with Bouin's solution for 15 min.

[6] = ratio (percentage) of BALF cells, mean ± SD

Compound: O=c1[nH]c(CS[C@H]2CC[C@H](O)CC2)nc2cc(OCC3CC3)cc(F)c12 [Compound 2, 7-(Cyclopropylmethoxy)-5-fluoro-2-(((trans-4-hydroxycyclohexyl)thio)methyl)quinazolin-4(3H)-one]
IgE blood serum levels [1]: reduced
levels of IL4, IL-5, IL-13, and IL-33 in BAL fluid [1]: reduced
levels of IL4, IL-5, IL-13, and IL-33 in lung tissue [1]: reduced
levels of eosinophils in BAL fluid [1]: reduced
levels of neutrophils in BAL fluid [1]: reduced
airway mucus in lung tissue ([1]; days 19-25): reduced

bodyweight ([2]; monitored daily, Compound 1 500 mg/kg PO BID, DEX ointment topical QD): caused decreases in bodyweight
bodyweight ([3]; monitored daily, consecutive IMQ treatment and dosing): caused decreases in bodyweight
Compound: C[C@@H]1C[C@H]2[C@@H]3CCC4=CC(=O)C=C[C@]4(C)[C@@]3(F)[C@@H](O)C[C@]2(C)[C@@]1(O)C(=O)CO [DEX, Dexamethasone]
inhibition rate of clinical scoring (AUC of total clinical score) compared to vehicle ([2]; Compound 1 500 mg/kg PO BID, DEX ointment 70 mg topical QD, P<0.0001): 43.5%
total clinical score, peak / high values ([2]; Compound 1: peak on Day 17, DEX: high clinical scores, vehicle peak 11.9 on Day 17): 6-7
inhibition rate of clinical scoring (AUC of total clinical score) ([3]; Compound 1 500 mg/kg PO BID (P<0.001), DEX ointment 70 mg topical QD (P<0.0001)): 87.7%

Compound: C[C@@H]1CCN(C(=O)CC#N)C[C@@H]1N(C)c1ncnc2[nH]ccc12 [Tofacitinib free base, Tofacitinib]
AUC of body weight change, difference to vehicle group [4]: a statistical difference was not seen
AUC of the DAI score in comparison to vehicle [4]: suppressed
DAI score in comparison to vehicle treated mice [4]: suppressed
body weight loss compared with vehicle group [4]: suppressed
colon density (increase induced by OXZ) [4]: also suppressed
colon histology (H&E staining) compared to the vehicle group [4]: appeared similar to the sham group
colon length (reduction induced by OXZ) [4]: also suppressed
colon weight (increase induced by OXZ) [4]: also suppressed
pathological score of colitis severity in comparison to the vehicle control group [4]: increased integrity of the crypt structure, less inflammatory cell infiltration, reduced muscle thickening and less crypt abscess
mean body weight changes (% of Day 0) compared with Vehicle group ([5]; Compound 1 500 mg/kg PO BID, Tofacitinib free base 50 mg/kg PO BID, Day 1-14): significantly higher than that of the Vehicle group from Day 6 to Day 14
Left lung weight ([5]; Day 14, mean ± SD): 101 ± 9 mg
Post-caval lobe weight ([5]; Day 14, mean ± SD): 27 ± 4
Right inferior lobe weight ([5]; Day 14, mean ± SD): 84 ± 14
Ashcroft score ([5]; Masson's trichrome-stained lung sections, mean ± SD): 2.2 ± 1.2
mice found dead during the treatment period ([5]; before reaching Day 14): no dead animals
bodyweight ([5]; day of sacrifice (Day 14), mean ± SD): 18.1 ± 1.7 g
BALF IL-6 ([5]; mean ± SD): 4.4 ± 5.5 pg/mL
Lung hydroxyproline (μg/left lung) ([5]; mean ± SD): 49.3 ± 8.3 μg/left lung
Total cells (×10^4) in BALF ([5]; mean ± SD): 83.8 ± 50.0 ×10^4
BALF IL-10 ([5]; mean ± SD, Compound 1 (n = 6), Tofacitinib free base (n = 1)): 2.9 pg/mL
mean body weight on the day of sacrifice compared with the Vehicle group ([5]; mouse, in vivo): increasing trend
mean right inferior lobe weight compared with the Vehicle group ([5]; mouse, in vivo): significant decreases
total number of cells in BALF compared with the Vehicle group ([5]; mouse, in vivo): no significant difference
Eosinophil in BALF ([5]; ratio (percentage) of BALF cells): 0.0
Lymphocyte in BALF [5, 6]: 11.7 ± 14.5
Monocyte in BALF [5, 6]: 88.0 ± 15.2
Neutrophil in BALF [5, 6]: 0.3 ± 0.9
